Results from patent publication US20230146795A1, “ENHANCEMENT OF ANTI-TUMOR ACTIVITY OF SHP2 INHIBITOR PYRIMIDINONE IN COMBINATION WITH NOVEL CANCER MEDICINES IN CANCERS” (TAIHO PHARMACEUTICAL CO., LTD., priority 2020, published 2023).

How the values were obtained:
Assay type in all cases: cell-based
[1] = system: MKN45; assay: Anti-proliferation assay (CellTiter-Glo 2.0), combination index, MKN45
Procedure: (§1) Cell lines were obtained from ATCC or Health Science Research Resources Bank.
(§2) Each cell lines were collected by ordinary method, then suspended in indicated medium containing 10% fetal bovine serum in table 3. The number of cells seeded per well was set to 500 cells/20 μL. […] The concentration of each anti-cancer reagents set to 8 concentrations including 0 nM. After adding the medicine to the cells, the cells were further incubated at 37° C. for 3 days under 5% CO2. Cell survival rates were calculated by adding 20 μL of CellTiter-Glo(registered trademark) 2. 0 (Promega) solution to each well, incubating the cells at room temperature for 10 minutes, and then measuring the chemiluminescence intensity of each well using a plate reader (ARVO).
(§3) A combination index (CI) value at each combined concentration of the medicines was determined.

[2] = system: MV-4-11; assay: Anti-proliferation assay (CellTiter-Glo 2.0), combination index, MV-4-11
Procedure: as §1
384 well culture plate (781086, Greiner Bio-One International) was used for cell survival rate measurement assay. Each cell lines were collected by ordinary method, then suspended in indicated medium containing 10% fetal bovine serum in table 3. The number of cells seeded per well was set to 500 cells/20 μL. After incubation at 37° C. for 24 hours under 5% CO2, Compound 1 and additional compound having an antitumor effect or a vehicle (DMSO) was added to each well by using D300e Digital Dispenser (Tecan). The concentration of Compound 1 was set to 10 concentrations. The concentration of each anti-cancer reagents set to 8 concentrations including 0 nM. After adding the medicine to the cells, the cells were further incubated at 37° C. for 3 days under 5% CO2. Cell survival rates were calculated by adding 20 μL of CellTiter-Glo(registered trademark) 2. 0 (Promega) solution to each well, incubating the cells at room temperature for 10 minutes, and then measuring the chemiluminescence intensity of each well using a plate reader (ARVO).
as §3

[3] = system: NCI-H358; assay: Anti-proliferation assay (CellTiter-Glo 2.0), combination index, NCI-H358
Procedure: as §1, §2, §3

[4] = system: RT4; assay: Anti-proliferation assay (CellTiter-Glo 2.0), combination index, RT4
Procedure: as §1, §2, §3

[5] = Compound 1 41.2 + combination drug 1110 nmol/L (1:27)
[6] = Compound 1 370 + combination drug 10000 nmol/L (1:27)
[7] = Compound 1 4.57 + combination drug 123 nmol/L (1:27)
[8] = Compound 1 13.7 + combination drug 370 nmol/L (1:27)
[9] = Compound 1 123 + combination drug 3330 nmol/L (1:27)
[10] = Compound 1 41.2 + combination drug 370 nmol/L (1:9)
[11] = Compound 1 123 + combination drug 1110 nmol/L (1:9)
[12] = Compound 1 370 + combination drug 3330 nmol/L (1:9)
[13] = Compound 1 1110 + combination drug 10000 nmol/L (1:9)
[14] = Compound 1:combination drug molar ratio 1:9
[15] = Compound 1 13.7 + combination drug 123 nmol/L (1:9)
[16] = Compound 1 3330 nmol/L + Doxorubicin 370 nmol/L, molar ratio 1:0.1
[17] = Compound 1 10000 nmol/L + Doxorubicin 1110 nmol/L, molar ratio 1:0.1
[18] = Compound 1 123 nmol/L + Doxorubicin 123 nmol/L, molar ratio 1:1
[19] = Compound 1 370 nmol/L + Doxorubicin 370 nmol/L, molar ratio 1:1
[20] = Compound 1 1110 nmol/L + Doxorubicin 1110 nmol/L, molar ratio 1:1
[21] = Compound 1 41.2 nmol/L + Doxorubicin 13.7 nmol/L, molar ratio 1:0.3
[22] = Compound 1 123 nmol/L + Doxorubicin 41.2 nmol/L, molar ratio 1:0.3
[23] = Compound 1 370 nmol/L + Doxorubicin 123 nmol/L, molar ratio 1:0.3
[24] = Compound 1 3330 nmol/L + Doxorubicin 1110 nmol/L, molar ratio 1:0.3
[25] = Compound 1 10000 nmol/L + Doxorubicin 3330 nmol/L, molar ratio 1:0.3
[26] = Compound 1 4.57 + combination drug 41.2 nmol/L (1:9)
[27] = Compound 1 4.57 + combination drug 370 nmol/L (1:81)
[28] = Compound 1 13.7 + combination drug 1110 nmol/L (1:81)
[29] = Compound 1 41.2 + combination drug 3330 nmol/L (1:81)
[30] = Compound 1 123 + combination drug 10000 nmol/L (1:81)
[31] = Compound 1:combination drug molar ratio 1:81
[32] = Compound 1 1.52 + combination drug 123 nmol/L (1:81)
[33] = Compound 1 13.7 nmol/L + Oxalliplatin 370 nmol/L, molar ratio 1:27
[34] = Compound 1 41.2 nmol/L + Oxalliplatin 1110 nmol/L, molar ratio 1:27
[35] = Compound 1 123 nmol/L + Oxalliplatin 3330 nmol/L, molar ratio 1:27
[36] = Compound 1 370 nmol/L + Oxalliplatin 10000 nmol/L, molar ratio 1:27
[37] = Compound 1 4.57 nmol/L + Oxalliplatin 41.2 nmol/L, molar ratio 1:9
[38] = Compound 1 41.2 + combination drug 13.7 nmol/L (1:0.3)
[39] = Compound 1 370 + combination drug 123 nmol/L (1:0.3)
[40] = Compound 1 1110 + combination drug 370 nmol/L (1:0.3)
[41] = Compound 1 3330 + combination drug 1110 nmol/L (1:0.3)
[42] = Compound 1 123 + combination drug 123 nmol/L (1:1)
[43] = Compound 1 370 + combination drug 370 nmol/L (1:1)
[44] = Compound 1 1110 + combination drug 1110 nmol/L (1:1)
[45] = Compound 1 3330 + combination drug 3330 nmol/L (1:1)
[46] = Compound 1 10000 + combination drug 10000 nmol/L (1:1)
[47] = Compound 1 123 + combination drug 370 nmol/L (1:3)
[48] = Compound 1 370 + combination drug 1110 nmol/L (1:3)

CCc1cc2c(cc1N1CCC(N3CCOCC3)CC1)C(C)(C)c1[nH]c3cc(C#N)ccc3c1C2=O [Alectinib]
CI [1, 5]: 0.905
Fa [1, 5]: 0.4310
CI [1, 6]: 0.542
Fa [1, 6]: 0.9801
Description (combinatory effect by CI) ([1]; Compound 1:combination drug molar ratio 1:27): Synergy (0.3-0.7)
CI [2, 7]: 0.829
Fa [2, 7]: 0.5762
CI [2, 8]: 0.484
Fa [2, 8]: 0.8852
CI [2, 5]: 0.609
Fa [2, 5]: 0.9534
CI [2, 9]: 0.187
Fa [2, 9]: 0.9967
CI [2, 6]: 0.631
Fa [2, 6]: 0.9962

COc1cc2c(Oc3ccc4[nH]c(C)cc4c3F)ccnc2cc1OCC1(N)CC1 [Anlotinib]
CI [3, 10]: 0.557
Fa [3, 10]: 0.3217
CI [3, 11]: 0.416
Fa [3, 11]: 0.5609
CI [3, 12]: 0.390
Fa [3, 12]: 0.7902
CI [3, 13]: 0.488
Fa [3, 13]: 0.9031
Description (combinatory effect by CI) [3, 14]: Synergy (0.3-0.7)
CI [1, 9]: 0.755
Fa [1, 9]: 0.7514
CI [4, 15]: 0.501
Fa [4, 15]: 0.3362
CI [4, 10]: 0.444
Fa [4, 10]: 0.5003
CI [4, 11]: 0.387
Fa [4, 11]: 0.7040
CI [4, 12]: 0.326
Fa [4, 12]: 0.8765
CI [4, 13]: 0.316
Fa [4, 13]: 0.9539
Description (combinatory effect by CI) [4, 14]: Synergy (0.3-0.7)

COc1cccc2c1C(=O)c1c(O)c3c(c(O)c1C2=O)C[C@@](O)(C(=O)CO)C[C@@H]3O[C@H]1C[C@H](N)[C@H](O)[C@H](C)O1 [Doxorubicin]
CI [3, 16]: 0.845
Fa [3, 16]: 0.7275
CI [3, 17]: 0.249
Fa [3, 17]: 0.9706
CI [1, 18]: 0.596
Fa [1, 18]: 0.5818
CI [1, 19]: 0.267
Fa [1, 19]: 0.8738
CI [1, 20]: 0.361
Fa [1, 20]: 0.9317
CI [4, 21]: 0.866
Fa [4, 21]: 0.2952
CI [4, 22]: 0.403
Fa [4, 22]: 0.5056
CI [4, 23]: 0.554
Fa [4, 23]: 0.6537
CI [4, 24]: 0.191
Fa [4, 24]: 0.9964
CI [4, 25]: 0.063
Fa [4, 25]: 0.9999

C#Cc1cccc(Nc2ncnc3cc(OCCOC)c(OCCOC)cc23)c1 [Erlotinib]
CI [3, 26]: 0.617
Fa [3, 26]: 0.1600
CI [3, 15]: 0.145
Fa [3, 15]: 0.3804
CI [3, 10]: 0.102
Fa [3, 10]: 0.5542
CI [3, 11]: 0.206
Fa [3, 11]: 0.6026
CI [3, 12]: 0.256
Fa [3, 12]: 0.7034
CI [3, 13]: 0.225
Fa [3, 13]: 0.8178
CI [4, 27]: 0.421
Fa [4, 27]: 0.2843
CI [4, 28]: 0.464
Fa [4, 28]: 0.4079
CI [4, 29]: 0.441
Fa [4, 29]: 0.5677
CI [4, 30]: 0.308
Fa [4, 30]: 0.7514
Description (combinatory effect by CI) [4, 31]: Synergy (0.3-0.7)
CI [2, 32]: 0.808
Fa [2, 32]: 0.0915
CI [2, 27]: 0.880
Fa [2, 27]: 0.2460
CI [2, 28]: 0.610
Fa [2, 28]: 0.6556
CI [2, 29]: 0.632
Fa [2, 29]: 0.8799
CI [2, 30]: 0.962
Fa [2, 30]: 0.9472
Description (combinatory effect by CI) [2, 31]: Synergy (0.3-0.7)

O=C1[O][Pt]2([NH][C@@H]3CCCC[C@H]3[NH]2)[O]C1=O [Oxalliplatin]
CI [3, 33]: 0.699
Fa [3, 33]: 0.1376
CI [3, 34]: 0.424
Fa [3, 34]: 0.3478
CI [3, 35]: 0.623
Fa [3, 35]: 0.4795
Description ([3]; combination effect, Compound 1 + Oxalliplatin, molar ratio 1:27): Synergy (0.3-0.7)
CI [1, 33]: 0.571
Fa [1, 33]: 0.4748
CI [1, 34]: 0.322
Fa [1, 34]: 0.6458
CI [1, 35]: 0.273
Fa [1, 35]: 0.7808
CI [1, 36]: 0.216
Fa [1, 36]: 0.9038
CI [4, 37]: 0.932
Fa [4, 37]: 0.2140

CNC(=O)c1cc(Oc2ccc(NC(=O)Nc3ccc(Cl)c(C(F)(F)F)c3)cc2)ccn1 [Sorafenib]
CI [2, 38]: 0.116
Fa [2, 38]: 0.9439
Fa ([2]; Compound 1 123 + combination drug 41.2 nmol/L (1:0.3)): 0.9578
CI [2, 39]: 0.301
Fa [2, 39]: 0.9643
CI [2, 40]: 0.759
Fa [2, 40]: 0.9665
CI [2, 41]: 0.865
Fa [2, 41]: 0.9766

CC(C)Nc1cc(-c2c[nH]c(C(=O)N[C@H](CO)c3cccc(Cl)c3)c2)c(Cl)cn1 [Ulixertinib]
CI [3, 42]: 0.709
Fa [3, 42]: 0.2823
CI [3, 43]: 0.379
Fa [3, 43]: 0.5072
CI [3, 44]: 0.237
Fa [3, 44]: 0.7490
CI [3, 45]: 0.260
Fa [3, 45]: 0.8778
CI [3, 46]: 0.284
Fa [3, 46]: 0.9536
CI [1, 47]: 0.483
Fa [1, 47]: 0.5887
CI [1, 48]: 0.644
Fa [1, 48]: 0.7816
Description (combinatory effect by CI) ([1]; Compound 1:combination drug molar ratio 1:3): Synergy (0.3-0.7)
CI [4, 15]: 0.759
Fa [4, 15]: 0.1321
CI [4, 10]: 0.310
Fa [4, 10]: 0.3352
CI [4, 11]: 0.330
Fa [4, 11]: 0.4921
CI [4, 12]: 0.622
Fa [4, 12]: 0.5670
Description (combinatory effect by CI) [4, 14]: Synergy (0.3-0.7)
